This note sets out measurements from ChEMBL document CHEMBL4270508, “1,3,5-Triazines: A promising scaffold for anticancer drugs development” (Eur J Med Chem, 2017).

Converted amounts (≈) assume the structure as drawn.

For one assay, the system named is NCI-H460. The assay is described as follows: Antiproliferative activity in human NCI-H460 cells incubated for 72 hrs by MTT assay. The class given is functional, cell-based. As to conditions: NCI-H460, 72 h.
Assay [1] has as its system MCF7. As to the kind of experiment: Antiproliferative activity in human MCF7 cells assessed as inhibition of cell proliferation. Format: functional, cell-based.
Assay [2] deals with MDA-MB-231. As to the kind of experiment: Antiproliferative activity in human MDA-MB-231 cells assessed as inhibition of cell proliferation. Format: functional, cell-based.
The next assay deals with HepG2. The assay is described as follows: Anticancer activity against human HepG2 cells incubated for 48 hrs by SRB assay. Format: functional, cell-based. As to conditions: HepG2, 48 h.
Assay [3] has as its system MCF7. As to the kind of experiment: Anticancer activity against human MCF7 cells incubated for 48 hrs by SRB assay. The class given is functional, cell-based. The conditions noted are these: MCF7, 48 h.
Assay [4] is described as follows: Inhibition of starfish oocytes CDK1/cyclin B using histone H1 and [gamma-33P]ATP incubated fro 30 mins by scintillation counting analysis. Further details: species or system Asteroidea.
Assay [5] addresses Cyclin-dependent kinase 5/CDK5 activator 1 (Homo sapiens, UniProt Q00535). The assay is described as follows: Inhibition of human recombinant CDK5/p25 using histone H1 and [gamma-33P]ATP incubated fro 30 mins by scintillation counting analysis. Format: protein-complex assay.
Assay [6] addresses Cyclin-dependent kinase 7/ cyclin H (Homo sapiens, UniProt P50613). The assay is described as follows: Inhibition of human recombinant CDK7/cyclin H using histone H1 and [gamma-33P]ATP incubated fro 30 mins by scintillation counting analysis. The class given is protein-complex assay.
For a further assay, the target named is CDK9/cyclin T1 (Homo sapiens, UniProt P50750). The assay is described as follows: Inhibition of human recombinant CDK9/cyclin T expressed in insect cells using pRb fragment (773 to 928 amino acids) and [gamma-33P]ATP incubated fro 30 mins by scintillation counting analysis.
CDK9/cyclin T1, sequence (O60563 whole entry, the tested form may be a part): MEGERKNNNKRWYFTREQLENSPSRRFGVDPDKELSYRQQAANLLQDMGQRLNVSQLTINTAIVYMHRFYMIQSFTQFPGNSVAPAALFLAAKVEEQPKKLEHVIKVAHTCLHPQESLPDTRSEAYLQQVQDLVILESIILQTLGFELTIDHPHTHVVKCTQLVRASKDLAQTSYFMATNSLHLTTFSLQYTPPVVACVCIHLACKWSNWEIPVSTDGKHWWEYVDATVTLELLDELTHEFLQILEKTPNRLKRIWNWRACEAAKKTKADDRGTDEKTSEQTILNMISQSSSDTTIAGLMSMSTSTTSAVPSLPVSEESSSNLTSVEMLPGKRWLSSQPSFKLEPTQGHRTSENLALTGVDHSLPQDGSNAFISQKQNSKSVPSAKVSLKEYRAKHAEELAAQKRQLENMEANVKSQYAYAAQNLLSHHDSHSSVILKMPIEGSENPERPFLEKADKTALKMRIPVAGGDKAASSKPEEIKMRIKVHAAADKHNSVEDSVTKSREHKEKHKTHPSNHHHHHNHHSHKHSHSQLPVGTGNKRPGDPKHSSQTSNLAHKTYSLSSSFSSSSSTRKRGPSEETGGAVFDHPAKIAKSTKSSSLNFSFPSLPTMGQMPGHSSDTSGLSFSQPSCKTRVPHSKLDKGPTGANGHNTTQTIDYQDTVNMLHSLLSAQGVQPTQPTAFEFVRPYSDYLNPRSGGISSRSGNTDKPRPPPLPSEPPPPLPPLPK
CDK9/cyclin T1, sequence (P50750 whole entry, the tested form may be a part): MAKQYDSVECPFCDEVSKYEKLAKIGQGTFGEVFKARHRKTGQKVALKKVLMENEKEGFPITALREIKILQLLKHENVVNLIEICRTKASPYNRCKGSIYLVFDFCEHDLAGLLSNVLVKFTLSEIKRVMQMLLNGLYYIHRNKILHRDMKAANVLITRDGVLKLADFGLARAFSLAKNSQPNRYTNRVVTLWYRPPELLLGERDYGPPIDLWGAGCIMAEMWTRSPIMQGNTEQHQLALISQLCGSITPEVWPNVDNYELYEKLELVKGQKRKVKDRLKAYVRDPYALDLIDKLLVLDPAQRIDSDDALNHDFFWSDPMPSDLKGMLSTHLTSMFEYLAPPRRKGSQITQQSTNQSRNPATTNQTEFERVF
The target of assay [7] is Ubiquitin-conjugating enzyme E2 B (Homo sapiens, UniProt P63146). As to the kind of experiment: Inhibition of human recombinant Rad6B using ubiquitin and histone H2A and ubiquitin-activating enzyme E1 preincubated for 1 hr before ubiquitin and histone H2A addition by SDS-PAGE and immunoblotting analysis.
Ubiquitin-conjugating enzyme E2 B, sequence (P63146 whole entry): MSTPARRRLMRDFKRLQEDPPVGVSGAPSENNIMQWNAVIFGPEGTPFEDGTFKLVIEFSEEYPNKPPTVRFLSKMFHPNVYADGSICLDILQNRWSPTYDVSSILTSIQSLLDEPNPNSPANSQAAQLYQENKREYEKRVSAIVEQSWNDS
Assay [8] in a line: Inhibition of rhodamine-labeled purified porcine brain tubulin polymerization in presence of GTP incubated for 30 mins by epifluorescence microscopy. Also on record: species or system Sus scrofa.
Assay [9] concerns A549. The assay is described as follows: Antiproliferative activity in human A549 cells assessed as inhibition of cell proliferation by MTT assay. Format: functional, cell-based. For orientation: Tetrazolium dyes change colour on reduction, which living cells bring about.
For another assay, the species on record is Homo sapiens. As to the kind of experiment: Inhibition of PI3K in human A549 cell lysates assessed as remaining enzyme activity at 1 uM pre-incubated for 5 mins before [gamma-32P]ATP addition and further incubated for 20 mins by TLC and autoradiography relative to untreated control.
Assay [10] relates to Panel NCI-60 (60 carcinoma cell lines). The assay is described as follows: Growth inhibition of human NCI60 cells incubated for 48 hrs by SRB assay. Format: functional, cell-based.
The test system of assay [11] is HT-29. As to the kind of experiment: Antiproliferative activity in human HT-29 cells incubated for 72 hrs by MTT assay. The class given is functional, cell-based. The conditions noted are these: HT-29, 72 h.
The subject of assay [12] is MDA-MB-231. As to the kind of experiment: Antiproliferative activity in human MDA-MB-231 cells incubated for 72 hrs by MTT assay. The conditions noted are these: MDA-MB-231, 72 h. The class given is functional, cell-based.
Assay [13] concerns HT-29. As to the kind of experiment: Anticancer activity against human HT-29 cells incubated for 48 hrs by MTT assay. The class given is functional, cell-based. As to conditions: HT-29, 48 h.
For assay [14], the system named is MCF7. As to the kind of experiment: Anticancer activity against human MCF7 cells incubated for 48 hrs by MTT assay. The class given is functional, cell-based. The conditions noted are these: MCF7, 48 h.
For assay [15], the system named is MDA-MB-231. The assay is described as follows: Anticancer activity against human MDA-MB-231 cells incubated for 48 hrs by MTT assay. Format: functional, cell-based. The conditions noted are these: MDA-MB-231, 48 h.
For another assay, the system named is HGC-27. As to the kind of experiment: Anticancer activity against human HGC27 cells incubated for 48 hrs by MTT assay. The conditions noted are these: HGC-27, 48 h. Format: functional, cell-based.
Assay [16] has as its system K562. As to the kind of experiment: Cytotoxicity in human K562 cells assessed as reduction in cell viability incubated for 72 hrs by MTT assay. Format: functional, cell-based. The conditions noted are these: K562, 72 h.
In a further assay the test system is PC-3. The assay is described as follows: Cytotoxicity in human PC3 cells assessed as reduction in cell viability incubated for 72 hrs by MTT assay. Format: functional, cell-based. The conditions noted are these: PC-3, 72 h.
A short description of assay [17]: Cytotoxicity in human HO8910 cells assessed as reduction in cell viability incubated for 72 hrs by MTT assay. Format: functional, cell-based. As to conditions: HO-8910, 72 h.
The subject of a further assay is SK-BR-3. As to the kind of experiment: Antiproliferative activity in human SK-BR-3 cells assessed as inhibition of cell proliferation by SRB/MTT assay. Format: functional, cell-based.
In the next assay the test system is BT-474. As to the kind of experiment: Antiproliferative activity in human BT474 cells assessed as inhibition of cell proliferation by SRB/MTT assay. The class given is functional, cell-based.
For assay [18], the system named is A549. The assay is described as follows: Antiproliferative activity in human A549 cells assessed as inhibition of cell proliferation by SRB/MTT assay. Format: functional, cell-based.
The subject of assay [19] is K562. As to the kind of experiment: Antiproliferative activity in human K562 cells assessed as inhibition of cell proliferation by SRB/MTT assay. Format: functional, cell-based.
Another assay relates to HCT-116. The assay is described as follows: Antiproliferative activity in human HCT116 cells assessed as inhibition of cell proliferation by SRB/MTT assay. The class given is functional, cell-based.

Cyclin-dependent kinase 7/ cyclin H, sequence (P51946 whole entry, the tested form may be a part): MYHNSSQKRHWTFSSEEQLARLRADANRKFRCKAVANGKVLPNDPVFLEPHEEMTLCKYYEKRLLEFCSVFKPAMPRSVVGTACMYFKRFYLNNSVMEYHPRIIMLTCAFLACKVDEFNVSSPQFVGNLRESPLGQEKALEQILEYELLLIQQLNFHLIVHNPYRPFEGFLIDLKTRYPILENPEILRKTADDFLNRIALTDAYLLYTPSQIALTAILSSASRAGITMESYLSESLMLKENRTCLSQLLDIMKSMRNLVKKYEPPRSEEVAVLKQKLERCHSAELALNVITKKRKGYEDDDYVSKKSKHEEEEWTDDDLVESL
Cyclin-dependent kinase 7/ cyclin H, sequence (P50613 whole entry, the tested form may be a part): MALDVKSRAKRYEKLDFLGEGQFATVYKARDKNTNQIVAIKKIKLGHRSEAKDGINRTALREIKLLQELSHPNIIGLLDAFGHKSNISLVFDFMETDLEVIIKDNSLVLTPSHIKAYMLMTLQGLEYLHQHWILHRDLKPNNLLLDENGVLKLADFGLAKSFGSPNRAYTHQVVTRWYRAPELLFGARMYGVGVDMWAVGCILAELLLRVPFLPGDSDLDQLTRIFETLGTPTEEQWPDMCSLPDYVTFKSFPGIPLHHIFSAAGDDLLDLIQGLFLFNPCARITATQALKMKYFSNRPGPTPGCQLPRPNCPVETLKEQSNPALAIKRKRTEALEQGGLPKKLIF
Cyclin-dependent kinase 5/CDK5 activator 1, sequence (Q00535 whole entry): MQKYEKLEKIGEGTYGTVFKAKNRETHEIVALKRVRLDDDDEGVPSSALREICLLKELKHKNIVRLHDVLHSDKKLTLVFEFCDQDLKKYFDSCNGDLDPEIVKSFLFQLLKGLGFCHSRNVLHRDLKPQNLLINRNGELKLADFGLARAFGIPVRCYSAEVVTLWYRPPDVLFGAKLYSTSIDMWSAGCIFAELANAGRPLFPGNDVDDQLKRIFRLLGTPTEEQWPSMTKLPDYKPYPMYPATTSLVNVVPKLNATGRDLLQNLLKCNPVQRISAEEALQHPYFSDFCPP
Cyclin-dependent kinase 5/CDK5 activator 1, sequence (Q15078 whole entry, further chain): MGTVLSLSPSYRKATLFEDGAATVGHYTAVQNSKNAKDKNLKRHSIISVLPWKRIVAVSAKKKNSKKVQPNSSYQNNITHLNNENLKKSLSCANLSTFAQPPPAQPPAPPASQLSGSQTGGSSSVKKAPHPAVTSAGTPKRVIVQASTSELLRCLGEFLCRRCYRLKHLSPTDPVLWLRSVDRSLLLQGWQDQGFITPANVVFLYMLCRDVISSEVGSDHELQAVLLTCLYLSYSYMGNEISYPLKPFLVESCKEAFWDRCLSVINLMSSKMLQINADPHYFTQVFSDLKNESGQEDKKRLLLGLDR

As to `N#Cc1ccc(Cn2cc(/C=N/Nc3nc(N4CCOCC4)nc(N4CCOCC4)n3)c3ccccc32)cc1`, in the assay with NCI-H460, the IC50 (in general, the concentration at which inhibition is half-maximal) was found to be 0.05 µM.

`COc1nc(N2CCCCC2)nc([N+]23CC[N+](CCCl)(CC2)CC3)n1`: the IC50 with MCF7 [1] is 7.4 to 136 µM; in the assay with MDA-MB-231 [2] it was 40.3 to 112 µM.

`COC(=O)[C@H](CO)Nc1nc(OC)nc([N+]23CC[N+](CCCl)(CC2)CC3)n1`: the values for the IC50 in the assay on MCF7 [1] and in the assay with MDA-MB-231 [2] were 7.4 to 136 µM and 40.3 to 112 µM, respectively.

As to `Clc1ccc(Cn2cc(/C=N/Nc3nc(N4CCOCC4)nc(N4CCOCC4)n3)c3ccccc32)cc1Cl`, in the assay with NCI-H460, the IC50 turned out to be 0.07 µM.

Regarding `CCCCNc1nc(OC)nc([N+]23CC[N+](CCCl)(CC2)CC3)n1`, the IC50 lay within 7.4 to 136 µM with MCF7 [1] and 40.3 to 112 µM in the assay on MDA-MB-231 [2].

As for `CCCCCCCCCCCCCCCCOC(=O)c1cc(C(=O)OCCCCCCCCCCCCCCCC)cc(-n2cc(-c3nc(-c4cn(-c5cc(C(=O)OCCCCCCCCCCCCCCCC)cc(C(=O)OCCCCCCCCCCCCCCCC)c5)nn4)nc(-c4cn(-c5cc(C(=O)OCCCCCCCCCCCCCCCC)cc(C(=O)OCCCCCCCCCCCCCCCC)c5)nn4)n3)nn2)c1`, the IC50 in the assay with HepG2 is 3.7 µg/mL (≈ 1.74 µM); in the assay with MCF7 [3], 2.95 µg/mL (≈ 1.39 µM).

For the molecule `CC[C@H](CO)Nc1nc(NCc2ccccc2)n2ncc(C(C)C)c2n1`, the IC50 (in [4]; in [5]; in assay [6]; at CDK9/cyclin T1) was 0.043 to 0.5 µM throughout.

On to `COc1nc(N2CCOCC2)nc([N+]23CC[N+](CCCl)(CC2)CC3)n1`, for which the IC50 in the assay on MCF7 [1] lay within 7.4 to 136 µM; in the assay with MDA-MB-231 [2], 40.3 to 112 µM.

In the case of `COc1nc(Nc2ccccc2)nc([N+]23CC[N+](CCCl)(CC2)CC3)n1`, the IC50 was 12.3 µM in the assay on MCF7 [1] and 40.3 to 112 µM with MDA-MB-231 [2].

Consider `COC(=O)[C@H](C)Nc1nc(OC)nc([N+]23CC[N+](CCCl)(CC2)CC3)n1`, for which the IC50 with MCF7 [1] was 7.4 to 136 µM; with MDA-MB-231 [2] it was 40.3 to 112 µM.

As to `Nc1nc(COC(=O)c2ccc([N+](=O)[O-])cc2)nc(Nc2ccccc2)n1`, the IC50 in [7] worked out at 0.025 µM.

`O=C(O)CCCc1ccc(N(CCCl)CCCl)cc1` [CHLORAMBUCIL]: the IC50 in the assay on MCF7 [1] came to 29.1 µM.

With `COC(=O)[C@H](Cc1ccccc1)Nc1nc(OC)nc([N+]23CC[N+](CCCl)(CC2)CC3)n1`, the IC50 with MCF7 [1] lay in the range of 7.4 to 136 µM; in the assay on MDA-MB-231 [2], 40.3 to 112 µM.

With `COc1ccc(CNc2nc(NCc3ccc(OC)cc3)c3ncn(C(C)C)c3n2)cc1` [MYOSEVERIN], the IC50 in [8] is 3.6 µM.

As to `COc1nc(NCc2ccccc2)nc([N+]23CC[N+](CCCl)(CC2)CC3)n1`, the IC50 fell in the range of 7.4 to 136 µM with MCF7 [1] and 40.3 to 112 µM in the assay on MDA-MB-231 [2].

Take `Cc1cc(=O)n2c(n1)N=C(N)NC2c1ccco1` (configuration not stated): in the assay on A549 [9], the IC50 amounted to 6 µM.

Regarding `FC(F)c1nc2ccccc2n1-c1nc(N2CCOCC2)nc(N2CCOCC2)n1`, the Activity in the assay filed under Homo sapiens is 4.7%.

Molecule `Nc1nc2nc(-c3ccccc3)nc(-c3ccccc3)n2n1` registered an IC50 in assay [10] of 0.49 to 100 µM.

For the molecule `C=CCc1cc(C)cc(/C=N/NC(=O)Nc2nc(N3CCOCC3)nc(N3CCOCC3)n2)c1O`, the IC50 was 0.75 µM in the assay on NCI-H460, 0.34 µM in the assay on HT-29 [11] and 0.6 µM in the assay with MDA-MB-231 [12].

As for `COc1nc(Nc2ccc(C)cc2)nc([N+]23CC[N+](CCCl)(CC2)CC3)n1`, the IC50 in the assay with MCF7 [1] is 7.4 µM; in the assay with MDA-MB-231 [2], 40.3 to 112 µM.

Turning to `c1ccc(Nc2nc(Nc3ccc(-c4nc5ccccc5[nH]4)cc3)nc(N3CCOCC3)n2)cc1`, the IC50 in the assay with HT-29 [13], in the assay with MCF7 [14], in the assay with MDA-MB-231 [15] and in the assay with HGC-27 was 4.8 to 15.1 µM throughout.

As to `Cc1ccc(Nc2nc(-c3ccccc3)nc(N3CCNCC3)n2)cc1`, the results for the IC50 (in the assay with K562 [16]; in the assay on PC-3; in [17]) were 1.01 µM, 2.23 µM and 1.06 µM, respectively.

For the molecule `Cc1cc(C)n(-c2nc(N/N=C\c3c[nH]c4ccccc34)nc(Nc3ccc(Br)cc3)n2)n1`, the IC50 is 8.9 µM in the assay with SK-BR-3; 7.1 µM with BT-474; 7.5 µM in the assay with A549 [18]; 8.6 µM in the assay on K562 [19]; 6.7 µM with HCT-116.
